According to patent US9757370B2, “Opsin-binding ligands, compositions and methods of use” (priority 2011, dated 2017):

Tested on: P23H opsin
Assay: Rhodopsin purification and regeneration: pigment formation from P23H opsin after compound treatment of P23H cells
Conditions: for Fold Increase Over Control (480-500 nm absorbance): P23H cells treated 48 hours, regenerated with 9-cis-retinal (20 μM), fold increase over the DMSO control

Row | Compound | Fold Increase Over Control (480-500 nm absorbance) (10 μM) [fold] | Fold Increase Over Control (480-500 nm absorbance) (20 μM) [fold] | regeneration of 500 nm absorbing pigment upon treatment with retinal (FIG. 1) (P23H opsin treated with 20 μM during mutant protein production, relative to vehicle (DMSO) alone)
1 | CC1=C(C(O)c2ccc3c(c2)CCN(C(N)=O)C3)C(C)(C)CCC1 (centres unmarked) [Compound 2, 6-(hydroxy(2,6,6-trimethylcyclohex-1-enyl)methyl)-3,4-dihydroisoquinoline-2(1H)-carboxamide] | 2.5 | – | –
2 | C[C@H]1CCCC(C)(C)[C@@H]1[C@H](O)c1ccc2c(c1)CCN(C(N)=O)C2 [Compound 3, 6-((S)-hydroxy((1R,6S)-2,2,6-trimethylcyclohexyl)methyl)-3,4-dihydroisoquinoline-2(1H)-carboxamide] | 1.5 | – | –
3 | C[C@H]1CCCC(C)(C)[C@@H]1[C@@H](O)c1ccc2c(c1)CCN(C(N)=O)C2 [Compound 5, 6-((R)-hydroxy((1R,6S)-2,2,6-trimethylcyclohexyl)methyl)-3,4-dihydroisoquinoline-2(1H)-carboxamide] | 1.9 | – | –
4 | CC(=O)/C=C/C1=C(C)CCCC1(C)C [β-ionone, reference compound] | – | 2.4 | increase in regeneration of 500 nm absorbing pigment
